Values of other authors as cited in patent publication US20130309199A1, “Novel Treatment of Multiple Sclerosis (MS)” (priority 2010, published 2013).

Assays:
detrusor instability = conditions: cited from earlier work
[1] = tested on: active multiple sclerosis lesions; conditions: gadolinium-enhanced MR images; cited from earlier work

## CC(C(=O)O)c1ccc(-c2ccccc2)c(F)c1 (racemic) [Flurbiprofen]
Detrusor instability; compared with five on placebo, P less than 0.025
  side effects occurred: 13 patients
Detrusor instability; in vivo
  tolerability: well tolerated by most patients
Detrusor instability; vs placebo, P less than 0.001
  frequency: significantly reduced
Detrusor instability; vs placebo, P less than 0.01
  detrusor-pressure rise during bladder filling: significantly reduced
Detrusor instability; vs placebo, P less than 0.025
  urge incontinence: significantly reduced
  urgency: significantly reduced

## CC(C)Cc1ccc(C(C)C(=O)O)cc1 (stereo not shown) [Ibuprofen]
[1]
  suppression of active multiple sclerosis lesions: does not suppress
